Assay results from US12239654B2, “Compounds and methods for treating neurological and cardiovascular conditions” (Astrocyte Pharmaceuticals, Inc., priority 2016, dated 2025).

Columns and labels:
[1] = Pharmacokinetics of MRS4322 following intraperitoneal administration of MRS2365 to mice; assay type: in vivo; conditions: for Plasma Concentration Mean / Plasma Concentration by Subject / Brain Concentration Mean / Brain Concentration by Subject: analyte MRS4322, mice, MRS2365 0.24 mg/kg ip; for Plasma Concentration by Subject / Brain Concentration by Subject: subjects A-C
Procedure: Animals: Female C576BL/6J mice weighing approximately 0.02 Kg were used for this study, supplied by the University of Texas Health Sciences Center (San Antonio, TX). All studies were conducted under approved University of Texas Health Sciences Center IACUC protocols.
Drug Administration: MRS2365 was solubilized in phosphate-buffered saline and then diluted in phosphate-buffered saline to prepare dosing solution. Final dosing solution concentration of MRS2365 was 100 μM. A 100 μL volume of dosing solution was administered intraperitoneally to each mouse per 20 gram body weight; MRS2365 was administered intraperitoneally at 0.5 μmol/kg or 0.24 mg/kg. Three mice were administered MRS2365 for each sampling timepoint.
Tissue Sampling: Blood and brain samples were obtained at 0, 0.083, 0.25, 0.5, 1, 2 and 8 hours post-dose. At each timepoint, mice (3/timepoint) were euthanized in a […] chamber. Whole blood was obtained by cardiac puncture into Microtainer tubes containing heparin and immediately centrifuged for preparation of plasma; plasma was stored at −80° C. At each timepoint, whole brain samples were obtained by decapitation, rinsed in ice-cold phosphate-buffered saline and weighed. Brain samples were then immediately flash-frozen in liquid nitrogen and stored at −80° C.
The following table outlines the LC and MS/MS conditions employed:
The calibration range for the MRS4322 plasma concentration standard curve was 2.26-241 ng/mL. The calibration range for MRS4322 brain concentrations was 2.35-242 ng/mL.
For bioanalysis of brain concentrations of MRS4322, brain samples were homogenized in ice-cold phosphate-buffered saline in a 4× dilution. Aliquots of the resulting diluted brain homogenate were treated with acetonitrile and analyzed by LC-MS/MS. Because of the 4× homogenate dilution, the calibration range of the MRS4322 brain standard curve was translated to 9.40-968 ng/gm. In several samples, MRS4322 were detectable but fell below the brain LLOQ of 9.40 ng/gm but were above background; in these cases the final reported brain concentration was extrapolated based on MS peak heights.

[2] = Plasma binding determination by plasma ultrafiltration, mouse; assay type: in vitro ADME; conditions: for fraction unbound at 60 min, 1 μM: male, CD-1, mouse, plasma
Procedure: (§1) Animals and Tissue Preparation: Plasma from male CD-1 mice was obtained from BioreclamationIVT (Westbury, NY) and stored at −80° C. until use. Male CD-1 mouse brains were obtained from BioreclamationIVT (Westbury, NY).
Plasma ultrafiltrate blank samples were prepared by thawing frozen plasma and then pre-warming plasma in a humidified 5% CO2 chamber at 37° C. for 60 minutes. Aliquots of 800 μL were transferred to Centrifree Centrifugal Filters (Ultracel regenerated cellulose (NMWL 30,000 amu) Lot R5JA31736) and centrifuged at 2900 RPM at 37° C. for 10 minutes; plasma water filtrates were collected and used in preparation of standards, blanks and QC standards.
Plasma samples were pre-warmed for 60 minutes in a humidified, 5% CO2 incubator maintained at 37° C. […] Spiked plasma samples were incubated on a rotary mixer in a humidified 5% CO2 chamber at 37° C. for a minimum of 60 minutes. After 60 minutes, three 800 μL aliquots of each sample were added to Centrifree centrifugal filters. The filters were subjected to centrifugation at 2900 rpm for 10 minutes at 37° C. Three 100 μL aliquots of residual plasma were collected along with ultrafiltrate for bioanalysis.
(§2) Plasma and brain concentrations of MRS4322 and MRS5698 in spiked plasma, brain homogenates and associated ultrafiltrates were determined by LC-MS/MS utilizing tolbutamide as an internal standard. […] The following tables outline the LC and MS/MS conditions employed (Tables 7 and 8).
(§3) For each tissue matrix, standard curves were created and LLOQ/ULOQ concentrations determined. The calibration range for the MRS4322 and MRS5698 plasma concentration standard curves was 400-1200 nM. The calibration range for MRS4322 and MRS5698 plasma ultrafiltrate standard curves was 100-1200 nM. The calibration range for MRS4322 brain homogenate and brain homogenate ultrafiltrate standard curves were 400-1200 nM and 100-1200 nM, respectively. The calibration range for MRS5698 brain homogenate and brain homogenate ultrafiltrate standard curves were 400-1200 nM and 1-500 nM, respectively.

[3] = Brain binding determination by brain homogenate ultrafiltration, mouse; assay type: in vitro ADME; conditions: 37° C., ultrafiltration; for fraction unbound at 60 min, 1 μM: male, CD-1, mouse, brain homogenate, pH 7.4, mouse brain homogenate
Procedure: as §1
Brains were weighed and homogenized with 1:9 phosphate-buffered saline, pH 7.4 using an Omni tissue homogenizer. Brains from four mice were homogenized, pooled and mixed to form one sample.
Pooled homogenized brains were pre-warmed for 60 minutes in a humidified, 5% CO2 incubator maintained at 37° C. […] Spiked pooled brain homogenates were placed on a Nutator mixer in a humidified, 5% CO2 incubator at 37° C. for 60 minutes. After 60 minutes, three 800 μL aliquots of each sample were added to Centrifree centrifugal filters. The filters were subjected to centrifugation at 2900 rpm for 10 minutes at 37° C. Aliquots of residual brain homogenate and ultrafiltrate were collected for bioanalysis.
as §2, §3

[4] = target: T1, mouse A3 adenosine receptor (Mus musculus, UniProt Q61618); test: Competition binding versus [^3H]NECA at mouse A3 receptors expressed in CHO cells
T1 construct: expressed in transfected cells; whole cells for cAMP
T1 sequence (Q61618 1-319): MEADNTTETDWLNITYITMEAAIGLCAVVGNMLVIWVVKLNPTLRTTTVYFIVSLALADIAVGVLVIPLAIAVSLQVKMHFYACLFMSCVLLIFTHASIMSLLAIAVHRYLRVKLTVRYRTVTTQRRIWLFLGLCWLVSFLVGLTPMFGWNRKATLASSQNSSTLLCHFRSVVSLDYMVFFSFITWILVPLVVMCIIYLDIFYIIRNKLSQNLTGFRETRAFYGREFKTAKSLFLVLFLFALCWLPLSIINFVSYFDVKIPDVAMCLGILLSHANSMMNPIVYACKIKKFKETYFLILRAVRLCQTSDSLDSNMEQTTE

[5] = mouse plasma, 1 μM, 37° C., ultrafiltration, read-out: Fraction Unbound Mean
[6] = read-out: Fraction Unbound Mean

In the case of `CSc1nc(N)c2ncn([C@H]3[C@H](O)[C@H](O)[C@]4(CO)C[C@H]34)c2n1` [MRS4322], the “Plasma Concentration Mean” value ([1]; 0 h) is reported as “BLQ”, the “Plasma Concentration by Subject” value ([1]; 0 h) is reported as “BLQ” and the “Brain Concentration Mean” value ([1]; 0.083 h) is reported as “BLQ”. For the same molecule, the “Brain Concentration by Subject” value ([1]; 0.083 h) was “BLQ”, the “Brain Concentration Mean” value ([1]; 1 h) was “BLQ” and the “Brain Concentration by Subject” value ([1]; 1 h) was “BLQ”. The “Brain Concentration Mean” value ([1]; 2 h) was “BLQ”, the “Brain Concentration by Subject” value ([1]; 2 h) was “BLQ” and the “Brain Concentration Mean” value ([1]; 8 h) was “BLQ”. For the same molecule, the “Plasma Concentration Mean” value ([1]; 8 h) was “BLQ”, the “Brain Concentration by Subject” value ([1]; 8 h) was “BLQ” and the “Plasma Concentration by Subject” value ([1]; 8 h) was “BLQ”. It also gave a Kp ([1]; female, C57BL/6J, mouse, MRS4322 after MRS2365 ip to mice, based on mean Cmax concentrations in plasma and brain, read-out: brain/plasma ratio of total drug) of roughly 0.1, a fraction unbound at 60 min, 1 μM ([2]; mouse plasma, 1 μM, 37° C., ultrafiltration, read-out: % Bound Mean (converted)) of 0.742 and a fraction unbound at 60 min, 1 μM [2, 5] of 0.742. For the same molecule, the “fraction available to interact with the A3 receptor relative to Cl-IB-MECA” value ([2]; mouse models, from unbound fractions in plasma and brain) was “at least 1000 fold”, the “Fraction Unbound Mean” value ([2]; mouse plasma, 1 μM, 37° C., ultrafiltration) was 0.74 and the fraction unbound at 60 min, 1 μM ([3]; read-out: % Bound Mean (converted)) was 0.13. For the same molecule, the fraction unbound at 60 min, 1 μM [3, 6] was 0.13, the “% Bound Mean” value ([3]; mouse brain homogenate, 1 μM) was 87.0% and the “Fraction Unbound Mean” value ([3]; mouse brain homogenate, 1 μM) was 0.130. For the same molecule, the Ki ([4]; read-out: Ki ± SEM, Mouse A3R, [^3H]NECA, CHO cell membrane preparations, [^3H]NECA (10 nM)) was 4.94 ± 0.974 µM.

In the case of `CNC(=O)[C@H]1O[C@@H](n2cnc3c(NCc4cccc(I)c4)nc(Cl)nc32)[C@H](O)[C@@H]1O` [Cl-IB-MECA, 2-Chloro-N^6-(3-iodobenzyl)-adenosine-5′-N-methyluronamide, reference compound], the fraction unbound at 60 min, 1 μM [2, 5] is reported as 0.002, the fraction unbound at 60 min, 1 μM [3, 6] is reported as 0.002 and the “difference in affinity of Cl-IB-MECA and MRS4322 at mouse A3 receptor” value ([4]; Cl-IB-MECA vs MRS4322) is reported as “approximately 25,000 fold”.

With `CSc1nc(N)c2ncn([C@H]3[C@H](O)[C@H](O)[C@]4(COP(=O)(O)OP(=O)(O)O)C[C@H]34)c2n1` [MRS2365] the “metabolism following intraperitoneal administration to mice” value ([1]; MRS2365 0.5 μmol/kg ip, comparison with equimolar MRS4322) was “rapidly and completely metabolized to MRS4322”.
